Measurements taken from patent US20220227735A1, “THERAPEUTIC METHODS AND COMPOUNDS” (RUTGERS, THE STATE UNIVERSITY OF NEW JERSEY, priority 2019, published 2022).
Where two headings read alike, the source gives them in different places.

What was measured:
[1] = tested on: human PKG (hPKG); assay: Human PKG IMAP fluorescence polarization kinase assay; type: biochemical; details: compound at 10 μm; recombinant hPKG, 10 uM ATP, 1 uM cGMP, FAM-IP3R substrate
Description: Human PKG, cloned into a pENTR221 vector, was obtained from DNASU.org. (HsCD00351766). It was cloned into a mammalian expression plasmid, Gateway pDEST27 (Invitrogen) for expression as a GST fusion protein, using LR Clonase II Plus enzyme (Invitrogen). The hPKG-pDEST27 plasmid was amplified in DH5a Max Efficiency Competent Cells and purified with a PureYield Plasmid Midiprep System (Promega) following the manufactures protocol. Expi293 cells were transfected with hPKG-pDEST27 using the Expifectamine 293 Transfection Kit (Gibco). After 18 hours, enhancing reagent (Gibco) was added. Cells were then collected 48 hours post-enhancing, centrifuged at 2000×g for 10 min, washed in ice cold PBS and frozen as a pellet at −80° C. until protein purification. The cell pellet was lysed with Mammalian Protein Extraction Reagent (Thermo Fisher) for 10-15 minutes. The lysate was centrifuged at 21,000×g for 15 minutes at 4° C. The supernatant was incubated for 1 h at 4° C. with glutathione resin that was pre-washed 10 times with ice cold Wash Buffer (50 mM Hepes pH 7.8, 120 mM KCl, 20 mM NaCl, 10% glycerol). The resin was loaded onto a column and washed with resin wash buffer by gravity flow until no more protein was detectable in the washes by Bradford assay. Protein was eluted with 10 mg/ml glutathione in Wash buffer. The protein was concentrated using a 30K MWCO Corning Spin X concentrator and assayed for activity as described above.
(§1) Plasmodium falciparum PKG (PfPKG) and human PKG (hPKG) kinase activity was assayed using a commercial immobilized metal ion affinity-based fluorescence polarization (IMAP) assay according to the manufactures protocol (Molecular Devices). Briefly, kinase assays (20 μl in black half volume 96 well microtiter plates) contained; 10 mM Tris-HCl, pH 7.2, 10 mM MgCl2, 0.05% NaN3, 0.01% Tween® 20, 10 uM ATP, 1 uM cGMP and 21 ng of recombinant enzyme per well. Compounds were preincubated with enzyme at 25° C. for 15 minutes and reactions were initiated with addition of 120 nM fluorescent peptide substrates, FAM-PKAtide for PfPKG and FAM-IP3R for hPKG (Molecular Devices). Fluorescent polarization was measured using a Synergy 2 Microplate reader (BioTek, Winooski, Vt.). Fluorescent polarization was read in parallel and perpendicular with an excitation wavelength of 485 nm and an emission wavelength of 528 nm. IC50 data were analyzed using a four parameter logistic curve fit using Microsoft Excel Solver.

[2] = target: T1, Plasmodium falciparum PKG (PfPKG) (Plasmodium falciparum, UniProt Q8I719); assay: PfPKG IMAP fluorescence polarization kinase assay; type: biochemical
T1 construct: Full length PfPKG was cloned into the pTrcHisC vector for expression in BL21 (DE3) Star cells; His tag (pTrcHisC vector) (N); made in house; host or cells: E. coli BL21 (DE3) Star
T1 sequence (Q8I719 whole entry): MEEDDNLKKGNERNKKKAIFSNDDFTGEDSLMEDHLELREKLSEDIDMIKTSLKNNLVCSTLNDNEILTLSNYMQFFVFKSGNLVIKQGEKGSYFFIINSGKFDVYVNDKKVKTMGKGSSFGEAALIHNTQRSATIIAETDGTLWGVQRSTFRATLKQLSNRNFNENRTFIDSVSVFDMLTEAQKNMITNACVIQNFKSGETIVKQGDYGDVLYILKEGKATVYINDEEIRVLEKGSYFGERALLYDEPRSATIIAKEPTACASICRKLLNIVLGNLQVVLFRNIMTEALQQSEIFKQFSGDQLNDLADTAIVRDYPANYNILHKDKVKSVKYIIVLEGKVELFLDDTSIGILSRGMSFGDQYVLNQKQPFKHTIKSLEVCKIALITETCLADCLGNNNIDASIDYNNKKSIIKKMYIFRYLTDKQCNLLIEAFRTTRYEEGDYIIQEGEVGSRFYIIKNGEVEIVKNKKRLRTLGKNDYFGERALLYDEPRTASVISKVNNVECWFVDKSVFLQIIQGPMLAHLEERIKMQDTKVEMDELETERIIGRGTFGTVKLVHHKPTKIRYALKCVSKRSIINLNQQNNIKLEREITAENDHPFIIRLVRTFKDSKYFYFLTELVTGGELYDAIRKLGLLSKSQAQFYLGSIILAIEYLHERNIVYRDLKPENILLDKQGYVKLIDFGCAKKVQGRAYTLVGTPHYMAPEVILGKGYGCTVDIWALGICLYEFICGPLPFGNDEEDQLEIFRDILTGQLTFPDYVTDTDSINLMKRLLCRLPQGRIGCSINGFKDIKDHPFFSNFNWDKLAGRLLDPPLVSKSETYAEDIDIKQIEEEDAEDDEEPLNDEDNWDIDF
Procedure: Full length PfPKG was cloned into the pTrcHisC vector for expression in BL21 (DE3) Star cells. An LB culture containing 50 ug/ml carbenicillin (250 mL) was grown overnight at 37° C. The following day the culture was cooled on ice for about 10-15 minutes and divided equally into two new 125 mL cultures. 125 ml of fresh LB broth containing carbenicillin was added to each flask bringing the volume of each flask to 250 ml. Cultures were shaken at 18° C. before induction with IPTG (1.0 mM) for 18-24 h. The bacterial pellet was frozen at −80° C. until protein purification. Cells were lysed with Bacterial Protein Extraction Reagent (Thermo Scientific) on ice for 10-15 min. Supernatant was obtained after centrifugation of lysate at 21,000×g for 15 min at 4° C. Supernatant was incubated for 30 minutes at 4° C. with rotation with HisPur Cobalt Resin (Thermo Scientific), pre-washed with Wash Buffer (50 mM Hepes pH 7.8, 120 mM KCl, 20 mM NaCl, 10 mM Imidazole). Resin was added to a gravity column that was allowed to empty through gravity flow. The resin was washed with Wash buffer until no more protein is eluted off the column as determined by Bradford assay. A second wash was performed with Wash buffer containing 300 mM NaCl as in the previous wash step. Bound protein was eluted in 50 mM Hepes pH 7.8, 120 mM KCl, 20 mM NaCl, 250 mM Imidazole. Protein was dialyzed overnight in 50 mM Hepes pH 7.8, 120 mM KCl, 20 mM NaCl and 10% glycerol, with two buffer exchanges. Dialyzed protein was concentrated in a Corning Spin-X concentrator and assayed for activity using the IMAP FP Progressive Screening Expression kit (Molecular Devices, catalog #R8127) following the manufacturer's protocol.
as §1

[3] = recombinant PfPKG, 10 uM ATP, 1 uM cGMP, FAM-PKAtide substrate, read-out: PfPKG (μm)

CN1CCC(c2[nH]c(-c3ccc(F)cc3)c(-c3ccncc3)c2CO)CC1 [Example 21, (5-(4-fluorophenyl)-2-(1-methylpiperidin-4-yl)-4-(pyridin-4-yl)-1H-pyrrol-3-yl)methanol]
Human PKG (10 μm) [1]: 12 | IC50 [2, 3]: < 1000 nM

CN(C)Cc1c(C2CCN(C)CC2)[nH]c(-c2ccc(F)cc2)c1-c1ccncc1 [Example 22, 1-(5-(4-fluorophenyl)-2-(1-methylpiperidin-4-yl)-4-(pyridin-4-yl)-1H-pyrrol-3-yl)-N,N-dimethylmethanamine]
Human PKG (10 μm) [1]: −3 | IC50 [2, 3]: < 1000 nM

CNCc1c(C2CCN(C)CC2)[nH]c(-c2ccc(F)cc2)c1-c1ccncc1 [Example 23]
Human PKG (10 μm) [1]: 0 | IC50 [2, 3]: < 1000 nM

CCc1c(C2CCN(C)CC2)[nH]c(-c2ccc(F)cc2)c1-c1ccncc1 [Example 24, 4-(4-ethyl-2-(4-fluorophenyl)-5-(1-methylpiperidin-4-yl)-1H-pyrrol-3-yl)pyridine]
Human PKG (10 μm) [1]: 43 | IC50 [2, 3]: < 1000 nM

CN1CCC(c2[nH]c(-c3ccc(F)cc3)c(-c3ccncc3)c2CS(C)(=O)=O)CC1 [Example 25, 4-(2-(4-fluorophenyl)-5-(1-methylpiperidin-4-yl)-4-((methylsulfonyl)methyl)-1H-pyrrol-3-yl)pyridine]
Human PKG (10 μm) [1]: 17 | IC50 [2, 3]: < 1000 nM

CN1C[C@@H]2C(c3cc(-c4ccncc4)c(-c4ccc(F)cc4)[nH]3)[C@@H]2C1 (stereo partly drawn) [Example 26, (1R,5S)-6-(5-(4-fluorophenyl)-4-(pyridin-4-yl)-1H-pyrrol-2-yl)-3-methyl-3-azabicyclo[3.1.0]hexane]
Human PKG (10 μm) [1]: 7 | IC50 [2, 3]: < 1000 nM

CN1C2CCC1CC(c1cc(-c3ccncc3)c(-c3ccc(F)cc3)[nH]1)C2 (stereo not shown) [Example 27, 3-(5-(4-fluorophenyl)-4-(pyridin-4-yl)-1H-pyrrol-2-yl)-8-methyl-8-azabicyclo[3.2.1]octane]
Human PKG (10 μm) [1]: 32 | IC50 [2]: < 1000 nM

CN1CCC(C)(c2cc(-c3ccncc3)c(-c3ccc(F)cc3)[nH]2)CC1 [Example 28, 4-(5-(1,4-dimethylpiperidin-4-yl)-2-(4-fluorophenyl)-1H-pyrrol-3-yl)pyridine]
Human PKG (10 μm) [1]: 29 | IC50 [2]: < 1000 nM

CN1CCC(c2cc(-c3ccncc3)c(-c3ccc(C(F)(F)F)cc3)[nH]2)CC1 [Example 33, 4-(5-(1-methylpiperidin-4-yl)-2-(4-(trifluoromethyl)phenyl)-1H-pyrrol-3-yl)pyridine]
Human PKG (10 μm) [1]: 9 | IC50 [2, 3]: < 1000 nM

COc1ccc(-c2[nH]c(C3CCN(C)CC3)cc2-c2ccncc2)cc1 [Example 34, 4-(2-(4-methoxyphenyl)-5-(1-methylpiperidin-4-yl)-1H-pyrrol-3-yl)pyridine]
Human PKG (10 μm) [1]: 38 | IC50 [2, 3]: < 1000 nM

CN1CCC(c2cc(-c3ccncc3)c(-c3ccc(F)cc3)[nH]2)CC1 [TSP, 4-(2-(4-fluorophenyl)-5-(1-methylpiperidin-4-yl)-1H-pyrrol-3-yl)pyridine, reference compound]
Human PKG (10 μm) [1]: 59 | IC50 [2, 3]: < 1000 nM
